Results: paper PMC2930754 (Chemical communications (Cambridge, England), 2010)

Tests used:
[1] = system: A2780 ovarian cancer cells; test: Antiproliferative activity to A2780 ovarian cancer cells; type: cell-based; settings: Homo sapiens, A2780, read-out: IC50 A2780 (antiproliferative activity)
tubulin = test: Promotion of in vitro tubulin polymerization; type: biochemical; settings: in vitro tubulin assembly

| SMILES | IC50 [1] [nM] | ED50, Tb polym. (promotion of tubulin polymerization) (tubulin) [nM] |
| --- | --- | --- |
| C/C(=C\c1csc(C)n1)[C@@H]1C[C@@H]2O[C@]2(C)CCC[C@H](C)[C@H](O)[C@@H](C)C(=O)C(C)(C)[C@@H](O)CC(=O)O1 [Compound 2, epothilone B] | 1.9 ± 0.2 | – |
| C/C1=C/C[C@@H](/C(C)=C/c2csc(C)n2)OC(=O)C[C@H](O)C(C)(C)C(=O)[C@H](C)[C@@H](O)[C@@H](C)CCC1 [Compound 4, epothilone D] | 6.8 ± 1.7 | 440 ± 20 |
